How the values were obtained:
[1] = target: Vascular endothelial growth factor receptor 1 (Homo sapiens) (UniProt P17948); experiment: Inhibition of wild-type human partial length FLT1 (R781 to F1239 residues) expressed in bacterial expression system at 1 uM by Kinomescan method relative to control
[2] = target: Tyrosine-protein kinase receptor UFO (Homo sapiens) (UniProt P30530); experiment: Inhibition of wild-type human partial length AXL (R497 to Y821 residues) expressed in bacterial expression system at 1 uM by Kinomescan method relative to control
[3] = target: Homeodomain-interacting protein kinase 3 (Homo sapiens) (UniProt Q9H422); experiment: Inhibition of wild-type human partial length HIPK3 (M153 to N562 residues) expressed in mammalian expression system at 1 uM by Kinomescan method relative to control
[4] = target: Mitogen-activated protein kinase kinase kinase 9 (Homo sapiens) (UniProt P80192); experiment: Inhibition of wild-type human partial length MLK1 (V88 to W426 residues) expressed in bacterial expression system at 1 uM by Kinomescan method relative to control
[5] = target: Homeodomain-interacting protein kinase 4 (Homo sapiens) (UniProt Q8NE63); experiment: Inhibition of wild-type human partial length HIPK4 (M1 to V384 residues) expressed in bacterial expression system at 1 uM by Kinomescan method relative to control
[6] = target: Non-receptor tyrosine-protein kinase TYK2 (Homo sapiens) (UniProt P29597); experiment: Inhibition of wild-type human partial length TYK2 JH1 catalytic domain (V877 to C1187 residues) expressed in mammalian expression system at 1 uM by Kinomescan method relative to control
[7] = target: cAMP-dependent protein kinase catalytic subunit beta (Homo sapiens) (UniProt P22694); experiment: Inhibition of wild-type human full length PKAC-beta (M1 to F351 residues) expressed in bacterial expression system at 10 uM by Kinomescan method relative to control
[8] = target: Epithelial discoidin domain-containing receptor 1 (Homo sapiens) (UniProt Q08345); experiment: Inhibition of wild-type human partial length DDR1 (R565 to V876 residues) expressed in bacterial expression system at 10 uM by Kinomescan method relative to control
[9] = target: Testis-specific serine/threonine-protein kinase 1 (Homo sapiens) (UniProt Q9BXA7); experiment: Inhibition of wild-type human full length TSSK1B (M1 to Q367 residues) expressed in bacterial expression system at 10 uM by Kinomescan method relative to control
[10] = target: Myosin light chain kinase, smooth muscle (Homo sapiens) (UniProt Q15746); experiment: Inhibition of wild-type human full length MYLK (M854 to E1845 residues) expressed in mammalian expression system at 10 uM by Kinomescan method relative to control
[11] = target: RAC-beta serine/threonine-protein kinase (Homo sapiens) (UniProt P31751); experiment: Inhibition of wild-type human partial length AKT2 expressed in bacterial expression system at 10 uM by Kinomescan method relative to control
[12] = target: Mitogen-activated protein kinase 12 (Homo sapiens) (UniProt P53778); experiment: Inhibition of wild-type human full length p38-gamma (M1 to L367 residues) expressed in mammalian expression system at 10 uM by Kinomescan method relative to control
Sequence of Mitogen-activated protein kinase 12 (Homo sapiens) (P53778 whole entry, the tested form may be a part): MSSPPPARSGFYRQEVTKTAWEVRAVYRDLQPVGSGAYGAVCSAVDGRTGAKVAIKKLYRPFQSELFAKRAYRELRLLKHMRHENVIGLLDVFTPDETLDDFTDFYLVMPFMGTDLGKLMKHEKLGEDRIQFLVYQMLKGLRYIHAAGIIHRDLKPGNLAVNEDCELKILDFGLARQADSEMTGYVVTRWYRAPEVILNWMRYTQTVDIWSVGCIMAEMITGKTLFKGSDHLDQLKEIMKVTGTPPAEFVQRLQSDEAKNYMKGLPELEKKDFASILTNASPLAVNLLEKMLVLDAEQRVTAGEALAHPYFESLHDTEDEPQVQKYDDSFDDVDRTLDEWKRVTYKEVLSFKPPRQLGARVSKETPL

Sequence of Epithelial discoidin domain-containing receptor 1 (Homo sapiens) (Q08345 whole entry, the tested form may be a part): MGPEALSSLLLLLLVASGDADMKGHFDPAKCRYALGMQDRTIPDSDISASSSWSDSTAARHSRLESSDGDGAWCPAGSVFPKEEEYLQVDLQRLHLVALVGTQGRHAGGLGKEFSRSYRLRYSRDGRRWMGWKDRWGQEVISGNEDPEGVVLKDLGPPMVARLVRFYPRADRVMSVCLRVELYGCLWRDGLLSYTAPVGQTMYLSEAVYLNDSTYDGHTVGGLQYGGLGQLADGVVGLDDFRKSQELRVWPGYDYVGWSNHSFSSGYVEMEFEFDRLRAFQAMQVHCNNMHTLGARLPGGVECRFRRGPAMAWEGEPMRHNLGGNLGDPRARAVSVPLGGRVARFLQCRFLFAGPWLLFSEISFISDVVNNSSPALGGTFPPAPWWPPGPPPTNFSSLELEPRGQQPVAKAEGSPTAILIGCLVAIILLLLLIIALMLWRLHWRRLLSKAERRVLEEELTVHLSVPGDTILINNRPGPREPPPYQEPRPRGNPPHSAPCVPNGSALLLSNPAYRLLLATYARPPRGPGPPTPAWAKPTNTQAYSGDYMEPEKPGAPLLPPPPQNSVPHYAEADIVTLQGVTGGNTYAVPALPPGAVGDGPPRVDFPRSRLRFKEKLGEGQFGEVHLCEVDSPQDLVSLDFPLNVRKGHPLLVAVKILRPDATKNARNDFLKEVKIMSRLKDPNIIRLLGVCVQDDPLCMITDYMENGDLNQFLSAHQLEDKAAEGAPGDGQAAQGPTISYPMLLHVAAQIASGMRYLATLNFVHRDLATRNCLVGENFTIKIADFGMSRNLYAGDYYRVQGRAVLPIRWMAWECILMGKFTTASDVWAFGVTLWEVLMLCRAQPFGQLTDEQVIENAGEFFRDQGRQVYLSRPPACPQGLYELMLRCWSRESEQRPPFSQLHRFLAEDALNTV
Sequence of Mitogen-activated protein kinase kinase kinase 9 (Homo sapiens) (P80192 whole entry, looked up, the tested form may be a part): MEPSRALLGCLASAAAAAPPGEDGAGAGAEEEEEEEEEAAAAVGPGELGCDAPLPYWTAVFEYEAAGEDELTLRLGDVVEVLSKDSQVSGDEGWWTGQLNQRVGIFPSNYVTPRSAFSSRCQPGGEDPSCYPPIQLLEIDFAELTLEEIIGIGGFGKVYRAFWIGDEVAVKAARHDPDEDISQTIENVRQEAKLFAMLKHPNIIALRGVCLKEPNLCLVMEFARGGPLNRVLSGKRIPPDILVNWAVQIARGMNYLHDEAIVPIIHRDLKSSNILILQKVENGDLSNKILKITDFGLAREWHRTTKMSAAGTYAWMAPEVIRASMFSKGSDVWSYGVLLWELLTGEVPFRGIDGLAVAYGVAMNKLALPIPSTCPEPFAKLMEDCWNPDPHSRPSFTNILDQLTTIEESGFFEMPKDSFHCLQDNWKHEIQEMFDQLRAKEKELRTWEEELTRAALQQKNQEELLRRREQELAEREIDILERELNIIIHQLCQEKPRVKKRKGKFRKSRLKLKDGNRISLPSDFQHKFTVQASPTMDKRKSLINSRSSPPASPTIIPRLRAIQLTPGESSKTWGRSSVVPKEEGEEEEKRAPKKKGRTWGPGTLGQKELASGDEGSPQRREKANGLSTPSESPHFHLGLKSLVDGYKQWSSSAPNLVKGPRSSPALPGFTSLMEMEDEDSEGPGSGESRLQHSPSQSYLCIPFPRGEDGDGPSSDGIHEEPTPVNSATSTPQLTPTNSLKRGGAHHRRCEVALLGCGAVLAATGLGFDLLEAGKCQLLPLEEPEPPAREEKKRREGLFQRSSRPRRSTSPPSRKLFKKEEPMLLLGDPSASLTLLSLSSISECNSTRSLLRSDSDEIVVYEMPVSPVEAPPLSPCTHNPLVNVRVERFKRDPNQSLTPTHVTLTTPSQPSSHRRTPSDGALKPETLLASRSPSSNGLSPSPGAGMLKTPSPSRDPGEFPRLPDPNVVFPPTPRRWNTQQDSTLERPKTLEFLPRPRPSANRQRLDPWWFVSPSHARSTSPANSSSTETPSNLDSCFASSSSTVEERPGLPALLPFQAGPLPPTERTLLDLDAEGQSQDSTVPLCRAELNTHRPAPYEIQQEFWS
Sequence of Myosin light chain kinase, smooth muscle (Homo sapiens) (Q15746 whole entry, the tested form may be a part): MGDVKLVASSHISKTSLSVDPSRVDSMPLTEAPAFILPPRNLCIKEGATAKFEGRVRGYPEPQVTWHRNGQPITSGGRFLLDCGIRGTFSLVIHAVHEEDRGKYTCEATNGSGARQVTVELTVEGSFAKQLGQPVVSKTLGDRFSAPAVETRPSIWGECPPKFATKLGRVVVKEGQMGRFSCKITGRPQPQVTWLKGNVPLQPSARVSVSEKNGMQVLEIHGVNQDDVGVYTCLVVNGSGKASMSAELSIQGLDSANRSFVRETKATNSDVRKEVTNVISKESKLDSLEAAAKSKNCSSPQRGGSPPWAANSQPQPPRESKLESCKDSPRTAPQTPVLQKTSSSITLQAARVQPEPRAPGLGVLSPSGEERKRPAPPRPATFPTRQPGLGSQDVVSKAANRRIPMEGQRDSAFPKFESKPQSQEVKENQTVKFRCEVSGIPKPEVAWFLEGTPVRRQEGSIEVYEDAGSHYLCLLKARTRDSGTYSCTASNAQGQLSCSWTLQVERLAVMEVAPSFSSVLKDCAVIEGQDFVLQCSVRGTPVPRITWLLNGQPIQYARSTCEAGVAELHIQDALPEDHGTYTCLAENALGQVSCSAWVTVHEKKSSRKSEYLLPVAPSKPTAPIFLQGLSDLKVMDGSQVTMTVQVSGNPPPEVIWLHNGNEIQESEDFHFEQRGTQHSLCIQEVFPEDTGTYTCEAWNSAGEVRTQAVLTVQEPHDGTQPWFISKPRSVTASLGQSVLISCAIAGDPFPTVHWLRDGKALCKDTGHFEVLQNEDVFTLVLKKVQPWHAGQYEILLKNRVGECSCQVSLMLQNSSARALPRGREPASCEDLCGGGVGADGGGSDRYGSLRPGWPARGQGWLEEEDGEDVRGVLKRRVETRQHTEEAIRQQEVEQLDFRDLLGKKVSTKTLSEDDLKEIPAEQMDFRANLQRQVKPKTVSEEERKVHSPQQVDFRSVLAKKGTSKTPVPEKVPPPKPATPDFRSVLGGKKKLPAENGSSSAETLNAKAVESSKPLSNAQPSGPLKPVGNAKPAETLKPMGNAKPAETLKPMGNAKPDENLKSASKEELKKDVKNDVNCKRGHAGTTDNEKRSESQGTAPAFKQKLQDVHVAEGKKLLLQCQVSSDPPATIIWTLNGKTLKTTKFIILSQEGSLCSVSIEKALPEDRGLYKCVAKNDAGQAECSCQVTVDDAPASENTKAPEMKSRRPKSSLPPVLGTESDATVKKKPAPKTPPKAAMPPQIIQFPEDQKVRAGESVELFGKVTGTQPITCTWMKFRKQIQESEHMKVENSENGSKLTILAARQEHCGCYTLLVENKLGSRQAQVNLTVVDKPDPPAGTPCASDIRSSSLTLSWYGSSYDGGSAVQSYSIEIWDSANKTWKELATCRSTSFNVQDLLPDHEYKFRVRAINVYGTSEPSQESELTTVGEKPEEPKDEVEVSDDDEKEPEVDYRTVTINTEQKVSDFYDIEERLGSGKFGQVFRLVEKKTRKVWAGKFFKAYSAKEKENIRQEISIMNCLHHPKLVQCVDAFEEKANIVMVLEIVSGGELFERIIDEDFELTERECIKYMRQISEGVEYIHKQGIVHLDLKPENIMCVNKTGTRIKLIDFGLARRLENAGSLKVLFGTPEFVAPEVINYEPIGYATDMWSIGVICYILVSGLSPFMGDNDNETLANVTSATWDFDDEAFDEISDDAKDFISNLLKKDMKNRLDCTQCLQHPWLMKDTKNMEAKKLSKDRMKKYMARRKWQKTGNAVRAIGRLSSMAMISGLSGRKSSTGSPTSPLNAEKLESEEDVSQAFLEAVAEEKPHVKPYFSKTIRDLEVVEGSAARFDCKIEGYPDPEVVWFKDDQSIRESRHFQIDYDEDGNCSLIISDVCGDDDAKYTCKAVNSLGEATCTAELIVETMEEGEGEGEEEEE
Sequence of Homeodomain-interacting protein kinase 4 (Homo sapiens) (Q8NE63 whole entry, the tested form may be a part): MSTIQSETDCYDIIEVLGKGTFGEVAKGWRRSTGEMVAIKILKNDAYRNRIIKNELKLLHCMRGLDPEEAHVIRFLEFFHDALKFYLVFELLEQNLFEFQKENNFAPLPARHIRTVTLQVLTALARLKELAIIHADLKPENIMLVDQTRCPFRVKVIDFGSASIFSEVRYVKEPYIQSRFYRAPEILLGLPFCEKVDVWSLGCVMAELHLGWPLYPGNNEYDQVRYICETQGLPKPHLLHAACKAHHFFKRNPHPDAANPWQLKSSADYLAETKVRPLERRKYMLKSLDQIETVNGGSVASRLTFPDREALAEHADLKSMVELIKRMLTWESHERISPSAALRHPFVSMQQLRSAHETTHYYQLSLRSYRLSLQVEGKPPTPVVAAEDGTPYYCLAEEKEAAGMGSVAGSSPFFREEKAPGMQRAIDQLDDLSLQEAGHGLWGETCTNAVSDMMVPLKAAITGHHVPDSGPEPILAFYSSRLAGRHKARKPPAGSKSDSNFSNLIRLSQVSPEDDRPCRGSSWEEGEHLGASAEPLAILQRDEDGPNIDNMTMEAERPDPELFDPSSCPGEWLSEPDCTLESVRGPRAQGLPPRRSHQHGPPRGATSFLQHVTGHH

| SMILES | inhibition [1] | inhibition [2] | inhibition [3] | inhibition [4] | inhibition [5] | inhibition [6] | inhibition [7] | inhibition [8] | inhibition [9] | inhibition [10] | inhibition [11] | inhibition [12] |
| --- | --- | --- | --- | --- | --- | --- | --- | --- | --- | --- | --- | --- |
| O=C(Nc1cccc([C@@H]2CN(c3ncnc4[nH]ccc34)CCN2CCO)c1)Nc1c(F)cccc1N1CCCC1 | 35% | 23% | 86% | 86% | 96% | 0% |  |  |  |  |  |  |
| O=C(Nc1cccc([C@H]2CCCN(c3ncnc4[nH]ccc34)C2)c1)Nc1ccccc1N1CCCC1 |  |  |  |  |  |  | 100% | 3.5% | 100% | 83% | 100% | 68% |
